Results from patent US11802147B2, “High affinity monoclonal antibodies for detecting amanitins” (priority 2019, dated 2023).
Values after ≈ are worked out from the molar mass of the structure shown. Where two headings read alike, the source gives them in different places. Starred links: 1 amine or outer side, 2 acyl side, 3 side chain; linkers in the order of their positions; H or OH if unused. Positions of bridges follow the written chain, without caps; N, C: chain ends. Non-standard residues stand in square brackets, D forms with d. Residues, ends and D or L forms follow the SMILES beside them. ξ: configuration not given here. Adda = CO[C@@H](Cc1ccccc1)[C@@H](C)/C=C(C)/C=C/[C@H](N[*:1])[C@H](C)C(=O)[*:2]; Trp(2-yl) = O=C([C@H](Cc1c([*:3])[nH]c2ccccc12)N[*:1])[*:2]; dAsp(3S-Me) = C[C@H](C(=O)[*:3])[C@@H](N[*:1])C(=O)[*:2]; ξTrp(2-yl) = O=C(C(Cc1c([*:3])[nH]c2ccccc12)N[*:1])[*:2]; Leu(4R-OH,5-OH) = C[C@](O)(CO)C[C@H](N)C(=O)O; d(γGlu) = O=C(O)[C@@H](CCC(=O)[*:2])N[*:1]; X1 = CC(O)(CO)CC(N[*:1])C(=O)[*:2]; cisHyp = O=C(O)[C@@H]1C[C@H](O)CN1; ξAsp(3ξ-OH) = NC(C(=O)O)C(O)C(=O)O; Hyp = O=C(O)[CH]1C[CH](O)CN1; NMeDha = C=C(NC)C(=O)O

Experiments:
[1] = test system: mAb 9C12.2; format: binding, mouse; conditions: for competitive inhibition of mAb 9C12.2: cELISA, up to 1,000 ng/mL; for recognition by mAb 9C12.2: statement of deposit
[2] = test system: mAb AMA9G3; format: binding, mouse; set-up: concentration at which test strips detect: unit not given here; conditions: for CR (cross-reactivity): lateral flow test strips; for concentration giving complete inhibition of the signal: either hapten as test line
[3] = test system: mAb 9G3.2; format: binding, mouse; conditions: for competitive inhibition of mAb 9G3.2: cELISA, up to 1,000 ng/mL; for recognition by mAb 9G3.2: statement of deposit
[4] = test system: Previously described mAbs to amatoxins; conditions: He et al; cited from earlier work
[5] = mAb 9C12.2, (IC50 α-AMA)/(IC50 test inhibitor)×100
[6] = mAb 9C12.2, inhibitor mixed with antibody, PERI-AMA-BSA coated plate
[7] = cross-reactivity with near neighbor compounds
[8] = mAb 9G3.2, (IC50 α-AMA)/(IC50 test inhibitor)×100
[9] = mAb 9G3.2, inhibitor mixed with antibody, PERI-AMA-BSA coated plate

| Compound | Cross reactivity [1] [%] | IC50 [1] [µg/mL] | detection by test strips [2] | Cross reactivity [3] [%] | IC50 [3] [µg/mL] | Cross reactivity [1, 5] [%] | IC50 [1, 6] [µg/mL] | detection by test strips [2, 7] | Cross reactivity [3, 8] [%] | IC50 [3, 9] [µg/mL] | CR (cross-reactivity) [2] [%] | concentration at which test strips detect [2, 7] | competitive inhibition of mAb 9C12.2 [1] | concentration giving complete inhibition of the signal [2] [ng/mL] | competitive inhibition of mAb 9G3.2 [3] | recognition by mAb 9G3.2 [3] | recognition by mAb 9C12.2 [1] | IC50 of previously described mAbs [4] [µg/mL] |
| --- | --- | --- | --- | --- | --- | --- | --- | --- | --- | --- | --- | --- | --- | --- | --- | --- | --- | --- |
| C=C1C(=O)N[C@H](C)C(=O)N[C@@H](CC(C)C)C(=O)N[C@@H](C(=O)O)[C@H](C)C(=O)N[C@@H](CCCNC(=N)N)C(=O)N[C@@H](/C=C/C(C)=C/[C@H](C)[C@H](Cc2ccccc2)OC)[C@H](C)C(=O)N[C@@H](C(=O)O)CCC(=O)N1C [microcystin-LR] (R[Adda][d(γGlu)][NMeDha][dA]L[dAsp(3S-Me)]-OH; lactam N-7) | <0.3 | >1 | did not detect | <0.3 | >1 |  |  |  |  |  |  |  |  |  |  |  |  |  |
| C/C=C1/C(=O)N[C@@H](C(=O)O)[C@H](C)C(=O)N[C@@H](CCCNC(=N)N)C(=O)N[C@@H](/C=C/C(C)=C/[C@H](C)[C@H](Cc2ccccc2)OC)[C@H](C)C(=O)N[C@@H](C(=O)O)CCC(=O)N1C [nodularin] | <0.3 | >1 | did not detect | <0.3 | >1 |  |  |  |  |  |  |  |  |  |  |  |  |  |
| N[C@H](C(=O)O)c1cc(=O)[nH]o1 [ibotenic acid] |  |  |  |  |  | <0.3 | >1 | did not detect | <0.3 | >1 |  |  |  |  |  |  |  |  |
| C[C@@H]1NC(=O)[C@H](C[C@@](C)(O)CO)NC(=O)[C@@H]2Cc3c([nH]c4ccccc34)SC[C@H](NC(=O)[C@@H]([C@H](C)O)NC1=O)C(=O)N1C[C@@H](O)C[C@H]1C(=O)N[C@@H](C)C(=O)N2 [phalloidin] (cyclo(A[dT]C[cisHyp]A[Trp(2-yl)][Leu(4R-OH,5-OH)]); thioether 3-6) |  |  |  |  |  | <0.3 | >1 |  | <0.3 | >1 | 0.005 |  |  |  |  |  |  |  |
| CC1NC(=O)C2CC(O)CN2C(=O)C2CSc3[nH]c4ccccc4c3CC(NC1=O)C(=O)NC(CC(C)(O)CO)C(=O)NC(C(C)C)C(=O)NC(C(O)C(=O)O)C(=O)N2 (stereo not drawn) [phallacidin] (cyclo([ξAsp(3ξ-OH)]C[Hyp]A[ξTrp(2-yl)][X1]V); thioether 2-5; configuration not given here) |  |  |  |  |  | <0.3 | >1 |  | <0.3 | >1 | 0.005 | 200 |  |  |  |  |  |  |
| NCc1cc(=O)[nH]o1 [muscimol] |  |  |  |  |  | <0.3 | >1 | did not detect | <0.3 | >1 |  |  |  |  |  |  |  |  |
| γ-amanitin |  |  |  |  |  | 115 | 0.0023 ± 0.00031 |  | 96 | 0.00163 ± 0.00021 |  |  | competitively inhibited | 10 | competitively inhibited | recognizes |  |  |
| CC[C@H](C)[C@@H]1NC(=O)CNC(=O)[C@@H]2Cc3c([nH]c4cc(O)ccc34)[S+]([O-])C[C@@H](NC(=O)CNC1=O)C(=O)N[C@@H](CC(N)=O)C(=O)N1C[C@H](O)C[C@H]1C(=O)N[C@@H]([C@@H](C)[C@@H](O)CO)C(=O)N2 (stereo in doubt) [α-amanitin] |  |  |  |  |  | 100 | 0.00266 ± 0.00018 (≈ 0.00289 µM) |  | 100 | 0.00157 (≈ 0.00171 µM) |  |  | competitively inhibited | 10 | competitively inhibited | recognizes | recognizes | 0.066 |
| β-amanitin |  |  |  |  |  | <0.3 | >1 |  | 6.5 | 0.0242 ± 0.0062 |  |  | no reduction in signal response |  | competitively inhibited | recognizes | recognizes |  |
